From patent US9302999B2, “Substituted triazoles as herbicides” (E. I. DU PONT DE NEMOURS AND COMPANY, priority 2012, dated 2016) come the findings set out here.

Experiment [1] has as its system sedge, umbrella (small-flower umbrella sedge, Cyperus difformis). Briefly: Test C flooded paddy test: sedge, umbrella. Type of experiment: in vivo. The settings on record: Cyperus difformis, scale 0 to 100 (0 no effect, 100 complete control), read-out: Plant response rating, Sedge, Umbrella. Summed up:
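Plants were grown to the 2-leaf stage, pots flooded to 3 cm above soil, and test compounds applied directly to the paddy water, with that depth held throughout. After 13 to 15 days in a greenhouse, injury was visually rated against controls on a 0 (no effect) to 100 (complete control) scale.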

The subject of experiment [2] is nightshade (eastern black nightshade, Solanum ptycanthum). As to the kind of experiment: Test C pre-/postemergence: nightshade. Format: in vivo. The following applies: Preemergence. The text has this: Seeds of plant species selected from blackgrass (Alopecurus myosuroides), bromegrass, downy (downy bromegrass, Bromus tectorum), foxtail, green (green foxtail, Setaria viridis), ryegrass, Italian (Italian ryegrass, Lolium multiflorum), winter wheat (Triticum aestivum), wild oat (Avena fatua), galium (catchweed bedstraw, Galium aparine), bermudagrass (Cynodon dactylon), surinam grass (Brachiaria decumbens), cocklebur (common cocklebur, Xanthium strumarium), corn (Zea mays), large crabgrass (Digitaria sanguinalis), woolly cupgrass (Eriochloa villosa), foxtail, giant (giant foxtail, Setaria faberii), goosegrass (Eleusine indica), johnsongrass (Sorghum halepense), kochia (Kochia scoparia), lambsquarters (Chenopodium album), morningglory (Ipomoea coccinea), nightshade (eastern black nightshade, Solanum ptycanthum), nutsedge, yellow (yellow nutsedge, Cyperus esculentus), pigweed (Amaranthus retroflexus), ragweed (common ragweed, Ambrosia elation), soybean (Glycine max), common (oilseed) sunflower (Helianthus annuus), Russian thistle (Salsola kali) and velvetleaf (Abutilon theophrasti) were planted into a blend of loam soil and sand and treated preemergence with test chemicals formulated in a non-phytotoxic solvent mixture which included a surfactant.
At the same time, plants selected from these crop and weed species and also barley (winter barley, Hordeum vulgare), canarygrass (Phalaris minor), chickweed (common chickweed, Stellaria media) windgrass (Apera spica-venti) and deadnettle (henbit deadnettle, Lamium amplexicaule) were planted in pots containing Redi-Earth® planting medium (Scotts Company, 14111 Scottslawn Road, Marysville, Ohio 43041) comprising spaghnum peat moss, vermiculite, wetting agent and starter nutrients and treated with postemergence applications of test chemicals formulated in the same manner. Plants ranged in height from 2 to 18 cm (1- to 4-leaf stage) for postemergence treatments.
Treated plants and controls were maintained in a greenhouse for 13 to 15 days, after which time all species were compared to controls and visually evaluated. Plant response ratings, summarized in Table C, are based on a scale of 0 to 100 where 0 is no effect and 100 is complete control. A dash (-) response means no test result.

As for `Cc1nn(-c2ccc(C(F)(F)F)cc2)nc1Cc1ccnc(C(F)(F)F)c1` [Compound 47, 4-[[5-methyl-2-[4-(trifluoromethyl)phenyl]-2H-1,2,3-triazol-4-yl]methyl]-2-(trifluoromethyl)pyridine], the pest or weed control at 62 g/ha in experiment [1] (Flood (flooded paddy test), 62 g ai/ha, visual rating after 13 to 15 days) was found to be 85%. Moreover, in experiment [1] (Flood (flooded paddy test), 125 g ai/ha, visual rating after 13 to 15 days), the pest or weed control at 125 g/ha was 90%. Moreover, in experiment [1] (Flood (flooded paddy test), 250 g ai/ha, visual rating after 13 to 15 days), the pest or weed control at 250 g/ha came out at 90%. Moreover, the pest or weed control at 31 g/ha in experiment [1] (Flood, 31 g ai/ha) worked out at 75%. The “Plant response rating, Nightshade” value in experiment [2] (31 g ai/ha, scale of 0 to 100, 0 is no effect, 100 is complete control) came to 45; in experiment [2] (62 g ai/ha, scale of 0 to 100, 0 is no effect, 100 is complete control) it was 98; in experiment [2] (125 g ai/ha, scale 0 to 100, 0 no effect, 100 complete control) it was 98; in experiment [2] (250 g ai/ha, scale 0 to 100, 0 no effect, 100 complete control) it was 98.
